From US20230339874A1, “PIPERAZINYL COMPOUNDS AND METHODS FOR TREATING NEMATODE INFECTIONS” (The Governing Council of the University of Toronto, priority 2020, published 2023)
Where two headings read alike, the source gives them in different places.

Key:
[1] = system: Danio rerio (zebrafish) embryos; experiment: Danio rerio (zebrafish) embryo abnormal developmental phenotype; format: in vivo; details: read-out: D. rerio (zebrafish) any phenotype EC50 (μM)
[2] = system: Pristionchus pacificus young adult animals; experiment: Pristionchus pacificus young adult abnormal locomotory behaviour on solid agar; format: in vivo; details: 1 h, read-out: P. pacificus, young adult 1 h any phene at 1 h (EC50 (μM))
[3] = system: D. immitis larval stage 3 (L3) worms; experiment: D. immitis L3 development assay; format: in vivo; details: 72 h, read-out: D. immitis L3 development EC50 (μM)
D. immitis microfilariae = D. immitis microfilariae immobility assay; format: in vivo; details: 72 h, read-out: D. immitis microfilariae immobility EC50 (μM)
C. elegans L3 larvae = C. elegans L3 larvae abnormal locomotory behaviour on solid agar; details: solid agar MYOB + E. coli OP50, mean of 4 replicates; for % C. elegans L3 larvae any phene 1 h (conc.): 1 h exposure; for % C. elegans L3 larvae any phene 6 h (conc.): 6 h exposure; for % C. elegans L3 larvae any phene 24 h (conc.): 24 h exposure
Description: 20 animals were scored after either 1, 6 or 24 hours of exposure to drug (as indicated) per replicate. […] Data are reported as the mean % of animals with abnormal phenotype over 4 independent replicates.

rat VAChT = target: T1, rat VAChT (Rattus norvegicus, UniProt Q62666); experiment: Competition binding, displacement of [3H]vesamicol from rat VAChT
T1 sequence (Q62666 1-530): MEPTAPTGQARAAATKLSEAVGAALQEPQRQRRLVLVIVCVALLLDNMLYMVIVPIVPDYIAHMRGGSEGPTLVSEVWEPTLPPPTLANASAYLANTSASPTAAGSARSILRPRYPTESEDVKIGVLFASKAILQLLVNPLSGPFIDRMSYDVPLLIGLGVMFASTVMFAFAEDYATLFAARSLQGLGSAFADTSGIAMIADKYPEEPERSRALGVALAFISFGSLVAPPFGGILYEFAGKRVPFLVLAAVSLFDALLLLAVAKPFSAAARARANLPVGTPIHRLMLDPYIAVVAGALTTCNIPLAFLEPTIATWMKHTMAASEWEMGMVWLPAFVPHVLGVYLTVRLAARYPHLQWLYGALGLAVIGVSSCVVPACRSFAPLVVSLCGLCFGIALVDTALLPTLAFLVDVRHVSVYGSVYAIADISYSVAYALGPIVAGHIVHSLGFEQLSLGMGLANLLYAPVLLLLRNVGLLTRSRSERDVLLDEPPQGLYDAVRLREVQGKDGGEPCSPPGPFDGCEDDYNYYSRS

Strongyloides ratti L3 = format: in vivo; details: 72 h incubation, 1 replicate
[4] = system: Heligmosomoides polygyrus larval stage 3 (L3) worms; format: in vivo; details: 72 h incubation, one replicate
[5] = displacement of [3H]vesamicol, rat VAChT expressed in P12 cells, read-out: ratVAChT Ki

SMILES | EC50 [1] [µM] | EC50 [2] [µM] | EC50 [3] [µM] | EC50 (D. immitis microfilariae) [µM] | % C. elegans L3 larvae any phene 1 h (conc.) (C. elegans L3 larvae; 3.75 uM) [%] | % C. elegans L3 larvae any phene 6 h (conc.) (C. elegans L3 larvae; 3.75 uM) [%] | % C. elegans L3 larvae any phene 24 h (conc.) (C. elegans L3 larvae; 3.75 uM) [%] | % C. elegans L3 larvae any phene 1 h (conc.) (C. elegans L3 larvae; 15 uM) [%] | % C. elegans L3 larvae any phene 6 h (conc.) (C. elegans L3 larvae; 15 uM) [%] | % C. elegans L3 larvae any phene 24 h (conc.) (C. elegans L3 larvae; 15 uM) [%] | % C. elegans L3 larvae any phene 1 h (conc.) (C. elegans L3 larvae; 60 uM) [%] | % C. elegans L3 larvae any phene 6 h (conc.) (C. elegans L3 larvae; 60 uM) [%] | % C. elegans L3 larvae any phene 24 h (conc.) (C. elegans L3 larvae; 60 uM) [%] | Ki (rat VAChT; [5]) [µM] | S. ratti L3 % lethality 25 μM (Strongyloides ratti L3) [%] | H. Polygyrus % lethality L3 25 μM [4] [%] | Ki (rat VAChT) [µM]
Cc1cc(N2CCN(CC3CCCCC3)CC2)ccc1[N+](=O)[O-] [V-b] | 5.1 | > 60 | 14 | 5.1 | 2.5 | 0.0 | 0.0 | 20.8 | 3.3 | 0.0 | 62.5 | 41.7 | 9.2 |  |  |  | 
Cc1ccc(N2CCN(CC3CC4C=CC3C4)CC2)cc1 (centres unmarked) [VI-c] | 16.9 |  | > 50 |  | 33.8 | 7.5 | 0.0 | 100.0 | 64.2 | 10.0 | 100.0 | 84.2 | 100.0 | 0.159 | 0 | 7.6 | 
FC(F)(F)c1cccc(N2CCN(CC3CCCC3)CC2)c1 [VI-k] | > 60 | > 60 |  |  | 18.3 | 0.8 | 0.0 | 94.2 | 30.8 | 8.3 | 95.0 | 70.0 | 80.8 | 6.68 | 0 | 34.1 | 
O[C@@H]1CCCC[C@H]1N1CCC(c2ccccc2)CC1 (racemic) [vesamicol, reference compound] | 21.1 | > 60 |  |  | 0.0 | 0.0 | 0.0 | 0.0 | 0.8 | 0.0 | 11.7 | 1.7 | 0.0 |  | 17.3 | 0 | 0.0303
Cc1ccc(N2CCN(CC3CC=CCC3)CC2)cc1 (centres unmarked) [VI-e] | 32.5 | 5.7 |  |  | 36.7 | 5.8 | 0.0 | 96.7 | 46.7 | 5.0 | 100.0 | 100.0 | 99.2 | 0.208 | 31.6 | 0 | 
Cc1ccc(N2CCN(C3CCC(C)C3)CC2)cc1 (centres unmarked) [VI-a] | > 15 |  | > 50 |  | 58.3 | 1.7 | 0.0 | 98.3 | 74.2 | 20.0 | 100.0 | 100.0 | 100.0 | 0.411 | 28.1 | 31.6 | 
